# Key:
# [1] = cited from earlier work
# [2] = tested on: human C3A liver cell cultures; experiment: Microarray differential expression of cDNAs in treated human C3A liver cell cultures; type: cell-based; conditions: change vs untreated C3A cells
# From the text: Incyte clones represent template sequences derived from the LIFESEQ GOLD assembled human sequence database (Incyte Genomics). In cases where more than one clone was available for a particular template, the 5′-most clone in the template was used on the microarray. The GENEALBUM GEM series 1-6 microarrays (Incyte Genomics) contain 52,616 array elements which represent 17,472 annotated clusters and 35,144 unannotated clusters. The HUMAN GENOME GEM series 1-3 microarrays (Incyte Genomics) contain 28,626 array elements which represent 10,068 annotated clusters and 18,558 unannotated clusters. For the UNIGEM series microarrays (Incyte Genomics), Incyte clones were mapped to non-redundant Unigene clusters (Unigene database (build 46), NCBI; Shuler (1997) J Mol Med 75:694-698), and the 5′ clone with the strongest BLAST alignment (at least 90% identity and 100 bp overlap) was chosen, verified, and used in the construction of the microarray. The UNIGEM V microarray (Incyte Genomics) contains 7075 array elements which represent 4610 annotated genes and 2,184 unannotated clusters.
# To construct microarrays, cDNAs were amplified from bacterial cells using primers complementary to vector sequences flanking the cDNA insert. […] Amplified cDNAs were then purified using […]-400 columns (APB). Purified cDNAs were immobilized on polymer-coated glass slides. Glass microscope slides (Corning, Corning N.Y.) were cleaned by ultrasound in 0.1% SDS and acetone, with extensive distilled water washes between and after treatments. Glass slides were etched in 4% hydrofluoric acid (VWR Scientific Products, West Chester Pa.), washed thoroughly in distilled water, and coated with 0.05% aminopropyl silane (Sigma Aldrich) in 95% ethanol. Coated slides were cured in a 110° C. oven. cDNAs were applied to the coated glass substrate using a procedure described in U.S. Pat. No. 5,807,522. One microliter of the cDNA at an average concentration of 100 ng/ul was loaded into the open capillary printing element by a high-speed robotic apparatus which then deposited about 5 nl of cDNA per slide.
# Microarrays were UV-crosslinked using a […] UV-crosslinker (Stratagene), and then washed at room temperature once in 0.2% SDS and three times in distilled water. Non-specific binding sites were blocked by incubation of microarrays in 0.2% casein in phosphate buffered saline (Tropix, Bedford Mass.) for 30 minutes at 60° C. followed by washes in 0.2% SDS and distilled water as before.
# Early confluent C3A cells (ATTC, Manassas Va.) were treated with captopril (0.5, 2, 48, and 60 μg/ml) for 1, 3, and 6 hours. Early confluent C3A cells were treated with enalapril (0.5, 2, 48, and 60 μg/ml) for 1, 3, and 6 hours. Early confluent C3A cells were treated with LY294002 (0.5, 2, 15, and 25 μg/ml) for 1, 3, and 6 hours. Early confluent C3A cells were starved of insulin for 3 days prior to treatment, then treated with LY294002 (10 μM) for 2, 24, 36, and 72 hours in the presence of insulin. Early confluent C3A cells were treated with DES (1, 10, and 100 μM) for 1, 3, and 6 hours. Early confluent C3A cells were treated with dexamethasone (1 and 20 μM) for 0, 2, 6, and 24 hours. Early confluent C3A cells were treated with MCA (0.5 and 10 μM) for 2, 6, and 24 hours. In all cases mRNA from untreated early confluent cells were prepared in parallel as described below.
# Cells were harvested and lysed in 1 ml of TRIZOL reagent (5×10^6 cells/ml; Life Technologies). The lysates were vortexed thoroughly and incubated at room temperature for 2-3 minutes and extracted with 0.5 ml chloroform. The extract was mixed, incubated at room temperature for 5 minutes, and centrifuged at 15,000 rpm for 15 minutes at 4° C. The aqueous layer was collected and an equal volume of isopropanol was added.
structure (smiles),measurement,setting,value
"C[C@H](N[C@@H](CCc1ccccc1)C(=O)O)C(=O)N1CCC[C@H]1C(=O)O [Enalaprilat, enalaprilat]",plasma half-life,[1]; in vivo,about 11 hours
CCOC(=O)[C@H](CCc1ccccc1)N[C@@H](C)C(=O)N1CCC[C@H]1C(=O)O [Enalapril],expression level of cDNA clone 63038,[2],−2.97
same,expression level of cDNA clone 118501,[2],6.06
same,expression level of cDNA clone 160822,[2],2.39
same,expression level of cDNA clone 279898,[2],4.08
same,expression level of cDNA clone 630625,[2],2.51
same,expression level of cDNA clone 1308112,[2],2.14
same,expression level of cDNA clone 1368834,[2],2.43
same,expression level of cDNA clone 1379063,[2],−2.44
same,expression level of cDNA clone 1448718,[2],−3.91
same,expression level of cDNA clone 1696224,[2],3.97
same,expression level of cDNA clone 1711151,[2],2.48
same,expression level of cDNA clone 1861456,[2],−2.51
same,expression level of cDNA clone 1930235,[2],3
same,expression level of cDNA clone 1975268,[2],−2.75
same,expression level of cDNA clone 1998269,[2],2.27
same,expression level of cDNA clone 2055569,[2],−3.1
same,expression level of cDNA clone 2123516,[2],3.71
same,expression level of cDNA clone 2513883,[2],3.82
same,expression level of cDNA clone 2757583,[2],4.13
same,expression level of cDNA clone 2884613,[2],2.51
same,expression level of cDNA clone 2921991,[2],−4.67
same,expression level of cDNA clone 2933775,[2],4.73
same,expression level of cDNA clone 2955163,[2],2.33
same,expression level of cDNA clone 4556538,[2],3.02
same,time of peak plasma concentration,[1]; enalapril given orally,within an hour
same,oral bioavailability,"[1]; given orally, not reduced by food",about 60%
same,half-life,[1]; in vivo,1.3 h
"Cc1ccc2cc3c(ccc4ccccc43)c3c2c1CC3 [MCA, 3-methylcholanthrene]",expression level of cDNA clone 72713,[2],3
same,expression level of cDNA clone 85606,[2],2.96
same,expression level of cDNA clone 118501,[2],4.54
same,expression level of cDNA clone 121785,[2],3.3
same,expression level of cDNA clone 136073,[2],3.1
same,expression level of cDNA clone 279898,[2],5.48
same,expression level of cDNA clone 311346,[2],4.59
same,expression level of cDNA clone 318486,[2],4.11
same,expression level of cDNA clone 408886,[2],4.93
same,expression level of cDNA clone 450856,[2],2.89
same,expression level of cDNA clone 452321,[2],4.3
same,expression level of cDNA clone 454839,[2],3.4
same,expression level of cDNA clone 462069,[2],2.41
same,expression level of cDNA clone 481402,[2],3.22
same,expression level of cDNA clone 510056,[2],5.65
same,expression level of cDNA clone 511448,[2],3.05
same,expression level of cDNA clone 560115,[2],−2.61
same,expression level of cDNA clone 604019,[2],3.28
same,expression level of cDNA clone 630625,[2],2.25
same,expression level of cDNA clone 669498,[2],−2.97
same,expression level of cDNA clone 701484,[2],2.51
same,expression level of cDNA clone 872017,[2],2.85
same,expression level of cDNA clone 1308112,[2],2.28
same,expression level of cDNA clone 1316801,[2],3.38
same,expression level of cDNA clone 1379063,[2],−3.63
same,expression level of cDNA clone 1381654,[2],2.64
same,expression level of cDNA clone 1457424,[2],2.93
same,expression level of cDNA clone 1522880,[2],2.74
same,expression level of cDNA clone 1560906,[2],3.13
same,expression level of cDNA clone 1616783,[2],2.63
same,expression level of cDNA clone 1619292,[2],−2.8
same,expression level of cDNA clone 1623214,[2],−3.12
same,expression level of cDNA clone 1630990,[2],3.34
same,expression level of cDNA clone 1696224,[2],4.4
same,expression level of cDNA clone 1756875,[2],2.99
same,expression level of cDNA clone 1786554,[2],2.67
same,expression level of cDNA clone 1833362,[2],−2.33
same,expression level of cDNA clone 1890576,[2],−3.07
same,expression level of cDNA clone 1930235,[2],2.93
same,expression level of cDNA clone 1975268,[2],−2.51
same,expression level of cDNA clone 1998269,[2],2.46
same,expression level of cDNA clone 2055867,[2],−2.67
same,expression level of cDNA clone 2120743,[2],2.97
same,expression level of cDNA clone 2123516,[2],3.83
same,expression level of cDNA clone 2195427,[2],2.32
same,expression level of cDNA clone 2232658,[2],2.25
same,expression level of cDNA clone 2252107,[2],2.44
same,expression level of cDNA clone 2293496,[2],−2.88
same,expression level of cDNA clone 2343348,[2],2.89
same,expression level of cDNA clone 2511277,[2],3.07
same,expression level of cDNA clone 2513883,[2],3.67
same,expression level of cDNA clone 2520894,[2],3.21
same,expression level of cDNA clone 2579218,[2],2.42
same,expression level of cDNA clone 2660756,[2],2.25
same,expression level of cDNA clone 2675232,[2],3.09
same,expression level of cDNA clone 2695371,[2],2.68
same,expression level of cDNA clone 2708055,[2],2.45
same,expression level of cDNA clone 2756333,[2],2.66
same,expression level of cDNA clone 2757583,[2],4.31
same,expression level of cDNA clone 2765271,[2],2.25
same,expression level of cDNA clone 2822027,[2],2.96
same,expression level of cDNA clone 2825358,[2],2.44
same,expression level of cDNA clone 2831490,[2],2.48
same,expression level of cDNA clone 2860918,[2],−3.2
same,expression level of cDNA clone 2884613,[2],2.2
same,expression level of cDNA clone 2891601,[2],2.56
same,expression level of cDNA clone 2912637,[2],−4.29
same,expression level of cDNA clone 2921991,[2],−3.43
same,expression level of cDNA clone 2955163,[2],3.24
same,expression level of cDNA clone 2956444,[2],3.04
same,expression level of cDNA clone 3074113,[2],3.03
same,expression level of cDNA clone 3108506,[2],3.02
same,expression level of cDNA clone 3158828,[2],2.67
same,expression level of cDNA clone 3222802,[2],3.23
same,expression level of cDNA clone 3225977,[2],2.59
same,expression level of cDNA clone 3381870,[2],2.3
same,expression level of cDNA clone 3407653,[2],2.7
same,expression level of cDNA clone 3472927,[2],2.77
same,expression level of cDNA clone 3493381,[2],2.62
same,expression level of cDNA clone 3606046,[2],3.24
same,expression level of cDNA clone 3792988,[2],3.23
same,expression level of cDNA clone 4019706,[2],3.55
same,expression level of cDNA clone 4070979,[2],2.44
same,expression level of cDNA clone 4091186,[2],2.64
same,expression level of cDNA clone 4092112,[2],3.55
same,expression level of cDNA clone 4203937,[2],7.13
same,expression level of cDNA clone 4246966,[2],3.03
same,expression level of cDNA clone 4254855,[2],2.3
same,expression level of cDNA clone 4284384,[2],2.73
same,expression level of cDNA clone 4287327,[2],−2.54
same,expression level of cDNA clone 4403805,[2],2.4
same,expression level of cDNA clone 4508879,[2],2.68
same,expression level of cDNA clone 4549259,[2],2.53
same,expression level of cDNA clone 4721130,[2],3.57
same,expression level of cDNA clone 5093071,[2],2.36
same,expression level of cDNA clone 5102731,[2],2.33
same,expression level of cDNA clone 5266015,[2],2.47
same,expression level of cDNA clone 5266376,[2],2.54
same,expression level of cDNA clone 5512044,[2],2.26
